Data reported in publication PMC7912881, “Polyhydroxy p-Terphenyls from a Mangrove Endophytic Fungus Aspergillus candidus LDJ-5” (Marine Drugs, 2021).
pIC50: −log10 of the molar value. In brackets after ≈: the same amount, converted by molar mass. Like-named read-outs stand apart in the source and are kept apart here.

Experiments:
Bacillus cereus = assay: Antimicrobial activity, agar dilution method; type: cell-based
Method: (§1) All p-terphenyls (1–7) were tested for their cytotoxicity against the L-02, MGC-803, HCT-116, BEL-7402, A549, SH-SY5Y, Hela, U87, K562, HL-60, HO8910, and MCF-7 cell lines using either the SRB or the MTT method with adriamycin as positive control. […] Recently, we have also reported nine prenylated p-terphenyls from Aspergillus candidus LDJ-5 [6]. Most of the prenylated p-terphenyls were cytotoxic. Additionally, comparing to prenylcandidusin B and prenylcandidusin C, compounds 2 and 3 were distinguished by the presence of one hydroxy group and the lack of the isoprenyl group on ring C (C-3″). […] The antimicrobial activities of compounds 1–7 were evaluated in vitro against Proteus species, Pseudomonas aeruginosa, Bacillus subtilis, B. cereus, and Mycobacterium phlei. […] Asperterphenyllin A (1) was also tested for antiviral activity and protein tyrosine phosphatase 1B (PTP1B) inhibitory activity. The antiviral activity of asperterphenyllin A (1) was evaluated against the influenza A virus (H1N1) using the cytopathic effect (CPE) inhibition assay. […] Protein tyrosine phosphatase 1B (PTP1B) has been reported to be a novel drug target for diabetes and obesity. It has also been considered to be involved in tumorigenesis.
(§2) Antimicrobial activities were evaluated as previously reported by using the agar dilution method. The five microbial strains included Proteus sp., Pseudomonas aeruginosa, Bacillus subtilis, B. cereus, and Mycobacterium phlei. Ciprofloxacin was used as positive control. All strains were donated by the Qingdao municipal hospital.

Proteus species = assay: Antimicrobial activity, agar dilution method; type: cell-based
Method: as §1, §2

Pseudomonas aeruginosa = assay: Antimicrobial activity, agar dilution method; type: cell-based
Method: as §1, §2

Mycobacterium phlei = assay: Antimicrobial activity, agar dilution method; type: cell-based; details: Mycolicibacterium phlei
Method: as §1, §2

Bacillus subtilis = assay: Antimicrobial activity, agar dilution method; type: cell-based
Method: as §1, §2

influenza A virus (H1N1) = assay: Anti-influenza A viral (H1N1) CPE inhibition assay; type: cell-based
Method: as §1
The antiviral activity of compound 1 against influenza A virus (H1N1) was evaluated by the CPE inhibition assay. […]

[1] = molecular target: T1, protein tyrosine phosphatase 1B (PTP1B) (Homo sapiens, UniProt P18031); assay: PTP1B inhibitory assay (pNPP hydrolysis); type: biochemical; details: pNPP substrate, room temperature
T1 sequence (P18031 1-435): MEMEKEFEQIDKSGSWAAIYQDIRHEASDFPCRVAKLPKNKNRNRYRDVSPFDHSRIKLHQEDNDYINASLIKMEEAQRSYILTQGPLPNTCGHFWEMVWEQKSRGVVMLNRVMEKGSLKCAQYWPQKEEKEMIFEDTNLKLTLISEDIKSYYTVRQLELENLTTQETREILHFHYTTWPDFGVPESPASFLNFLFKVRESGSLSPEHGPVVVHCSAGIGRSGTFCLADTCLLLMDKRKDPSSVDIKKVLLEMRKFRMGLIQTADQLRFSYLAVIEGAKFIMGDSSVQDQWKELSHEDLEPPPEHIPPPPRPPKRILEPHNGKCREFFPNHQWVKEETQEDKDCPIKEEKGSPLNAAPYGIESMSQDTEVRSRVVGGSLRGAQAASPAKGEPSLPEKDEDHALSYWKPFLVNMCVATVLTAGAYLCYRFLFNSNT

[2] = system: L-02, MGC-803, HCT-116, BEL-7402, A549, SH-SY5Y, Hela, U87, K562, HL-60, HO8910, and MCF-7 cell lines; assay: Cytotoxicity against the panel of cell lines (SRB or MTT method); type: cell-based, human; details: for pIC50: Homo sapiens; for cytotoxicity effects: compared with prenylcandidusins on K562
Method: as §1
(§3) The cytotoxicity of 1–7 and positive control was evaluated against human leukemia cell lines K562 and HL-60 (using the MTT method), human normal liver cell line L-02, human gastric cancer cell lines MGC-803, human colon cancer lines HCT-116, human hepatocacinoma cell line BEL-7402, human lung cancer cell lines A549, human neuroblastoma cell line SH-SY5Y, human cervical cancer cell lines HeLa, human glioma cell lines U87, human ovarian cancer cell lines HO-8910, and human breast cancer cell lines MCF-7 (using the SRB method). Adriamycin was used as positive control. The detailed methodologies for biological testing have been described in previous reports. All the cell lines were purchased from the Institute of Biochemistry and Cell Biology, Chinese Academy of Sciences (Shanghai, China).

HCT-116 cell line = assay: Cytotoxicity, SRB method; type: cell-based; details: HCT-116 human colon cancer cell line
Method: as §1, §3

HO8910 cell line = assay: Cytotoxicity, SRB method; type: cell-based; details: HO-8910, HO8910 human ovarian cancer cell line
Method: as §1, §3

Cytotoxicity, SRB method = type: cell-based; details: L-02 normal liver cells, L-02 human normal liver cell line
Method: as §1, §3

BEL-7402 cell line = assay: Cytotoxicity, SRB method; type: cell-based; details: BEL-7402 human hepatocarcinoma cell line
Method: as §1, §3

A549 cell line = assay: Cytotoxicity, SRB method; type: cell-based; details: A549 human lung cancer cell line
Method: as §1, §3

SH-SY5Y cell line = assay: Cytotoxicity, SRB method; type: cell-based; details: SH-SY5Y human neuroblastoma cell line
Method: as §1, §3

U87 cell line = assay: Cytotoxicity, SRB method; type: cell-based; details: U-87 MG, U87 human glioma cell line
Method: as §1, §3

MGC-803 cell line = assay: Cytotoxicity, SRB method; type: cell-based; details: MGC-803 human gastric cancer cell line
Method: as §1, §3

Hela cell line = assay: Cytotoxicity, SRB method; type: cell-based; details: Hela human cervical cancer cell line
Method: as §1, §3

K562 cell lines = system: K562 cell lines; set-up: method as in PMID 31827255; details: cited from earlier work
[3] = all twelve tested cell lines, SRB or MTT, read-out: IC50 against all tested cell lines

| SMILES | MIC (Bacillus cereus) [µg/mL] | MIC (Proteus species) [µg/mL] | MIC (Pseudomonas aeruginosa) [µg/mL] | MIC (Mycobacterium phlei) [µg/mL] | MIC (Bacillus subtilis) [µg/mL] | pIC50 [2, 3] | further results |
| --- | --- | --- | --- | --- | --- | --- | --- |
| O=C(O)c1cn(C2CC2)c2cc(N3CCNCC3)c(F)cc2c1=O [Ciprofloxacin, reference compound] | 2.07 (≈ 6.25 µM) | 0.26 (≈ 0.785 µM) | 0.52 (≈ 1.57 µM) | 0.52 (≈ 1.57 µM) | 4.14 (≈ 12.5 µM) | – | – |
| COc1c(-c2ccc(O)c(O)c2)cc(OC)c2c1oc1c(-c3c(O)c(O)cc4c3oc3c(OC)c(-c5ccc(O)c(O)c5)cc(OC)c34)c(O)c(O)cc12 [Compound 1, Asperterphenyllin A] | > 200 | > 200 | > 200 | > 200 | > 200 | < 4.30 | pIC50 (influenza A virus (H1N1); H1N1, CPE inhibition assay, read-out: IC50 anti-influenza virus A (H1N1) activity): 4.28; pIC50 [1]: 4.68 |
| COc1cc2oc3c(OC)c(-c4ccc(O)c(O)c4)cc(OC)c3c2cc1OC [Compound 2, Asperterphenyllin B] | > 200 | > 200 | 40 (≈ 101 µM) | 79 (≈ 199 µM) | > 200 | < 4.30 | cytotoxicity effects [2]: did not show any cytotoxicity effects |
| COc1cc2oc3c(OC)c(-c4ccc(O)c(O)c4)cc(OC)c3c2cc1O [Compound 3, Asperterphenyllin C] | > 200 | 19 (≈ 49.7 µM) | > 200 | 38 (≈ 99.4 µM) | 38 (≈ 99.4 µM) | < 4.30 | cytotoxicity effects [2]: did not show any cytotoxicity effects |
| COc1cc(-c2ccc(O)cc2)c(OC)c(OC)c1-c1ccc(O)c(O)c1 [Compound 4, Asperterphenyllin D] | 70 (≈ 190 µM) | > 200 | > 200 | > 200 | > 200 | < 4.30 | – |
| COc1cc(-c2c(OC)cc(-c3ccccc3)c(OC)c2O)ccc1O [Compound 5, Asperterphenyllin E] | 70 (≈ 199 µM) | 35 (≈ 99.3 µM) | 70 (≈ 199 µM) | 70 (≈ 199 µM) | 70 (≈ 199 µM) | < 4.30 | – |
| COc1cc(-c2ccc(O)c(O)c2)c(OC)c(O)c1-c1ccccc1 [Compound 6, Asperterphenyllin F] | > 200 | > 200 | > 200 | > 200 | > 200 | < 4.30 | – |
| COc1cc(-c2ccc(O)cc2)c(OC)c(O)c1-c1ccc(OC/C=C(\C)CO)c(O)c1 [Compound 7, Asperterphenyllin G] | 87 (≈ 198 µM) | > 200 | > 200 | > 200 | > 200 | – | pIC50 (HCT-116 cell line): 6.10; pIC50 (HO8910 cell line): 5.89; pIC50 (Cytotoxicity, SRB method): 5.77; pIC50 (BEL-7402 cell line): 5.22; pIC50 (A549 cell line): 6.40; pIC50 (SH-SY5Y cell line): 6.22; pIC50 (U87 cell line): 6.05; pIC50 (MGC-803 cell line): 6.00; pIC50 (Hela cell line): 5.77; pIC50 ([2]; read-out: IC50 values against nine cell lines (range)): 5.77 to 6.40 |
| COc1cc2oc3c(OC)c(-c4ccc(O)c(CC=C(C)C)c4)cc(OC)c3c2cc1OC [Prenylcandidusin B] | – | – | – | – | – | – | inhibitory activity against K562 cell lines (K562 cell lines): moderate inhibitory activity |
| COc1cc2oc3c(OC)c(-c4ccc(O)c(CC=C(C)C)c4)cc(OC)c3c2cc1O [prenylcandidusin C] | – | – | – | – | – | – | inhibitory activity against K562 cell lines (K562 cell lines): moderate inhibitory activity |
| NC(=O)c1ncn([C@@H]2O[C@H](CO)[C@@H](O)[C@H]2O)n1 [ribavirin, reference compound] | – | – | – | – | – | – | pIC50 (influenza A virus (H1N1); H1N1, read-out: IC50 anti-influenza virus A (H1N1) activity): 4.46 |
